{"source": "patent US20200237746A1", "about": "“HSP90 TARGETED CONJUGATES AND PARTICLE FORMULATIONS THEREOF” (TARVEDA THERAPEUTICS, INC., priority 2017, published 2020)", "key": {"[1]": {"assay": "Log P of Compound A", "assay_type": "physicochemical", "settings": "approximate value"}, "[2]": {"test_system": "NCI-H69 xenograft model (small cell lung cancer)", "assay": "Efficacy in NCI-H69 xenograft model: tumor volumes and tumor growth inhibition", "assay_type": "in vivo, mice", "description": "Efficacies of Compound A alone or formulated in nanoparticles were studied with NCI-H69 xenograft model (small cell lung cancer)."}, "[3]": {"assay": "in vivo", "settings": "rat, 1 mg/kg", "procedure": "In addition, rat plasma concentrations of Compound A and Compound A in NP04 formulation were measured over time."}, "[4]": {"settings": "Compound A 25 mg/kg days 1 and 8, Day 5"}, "[5]": {"settings": "Compound A 25 mg/kg days 1 and 8, Day 8"}, "[6]": {"settings": "Compound A 25 mg/kg days 1 and 8, Day 16"}, "[7]": {"settings": "Compound A 25 mg/kg days 1 and 8, Day 19"}, "[8]": {"settings": "Compound A 50 mg/kg days 1 and 8, Day 5, 50 mg/kg"}, "[9]": {"settings": "Compound A 50 mg/kg days 1 and 8, Day 8, 50 mg/kg"}, "[10]": {"settings": "Compound A 50 mg/kg days 1 and 8, Day 11, 50 mg/kg"}, "[11]": {"settings": "Compound A 50 mg/kg days 1 and 8, Day 16, 50 mg/kg"}, "[12]": {"settings": "Compound A 50 mg/kg days 1 and 8, Day 19, 50 mg/kg"}, "[13]": {"settings": "Compound A 50 mg/kg days 1 and 8, Day 22, 50 mg/kg"}, "[14]": {"settings": "Compound A 150 mg/kg days 1 and 8, Day 5, 150 mg/kg"}, "[15]": {"settings": "Compound A 150 mg/kg days 1 and 8, Day 8, 150 mg/kg"}, "[16]": {"settings": "Compound A 150 mg/kg days 1 and 8, Day 11"}, "[17]": {"settings": "Compound A 150 mg/kg days 1 and 8, Day 11, 150 mg/kg"}, "[18]": {"settings": "Compound A 150 mg/kg days 1 and 8, Day 16, 150 mg/kg"}, "[19]": {"settings": "Compound A 150 mg/kg days 1 and 8, Day 19, 150 mg/kg"}, "[20]": {"settings": "Compound A 150 mg/kg days 1 and 8, Day 22, 150 mg/kg"}}, "note": "Several values for one entry are separate records, joined by “and”; a condition that tells them apart may be missing. Equal values may be shown once.", "data": [{"smiles": "CCc1c2c(nc3ccc(OC(=O)N4CCC(CCn5ccc6cc(-n7c(O)nnc7-c7cc(C(C)C)c(O)cc7O)ccc65)CC4)cc13)-c1cc3c(c(=O)n1C2)COC(=O)[C@]3(O)CC", "note": "[Compound A, (S)-4,11-diethyl-4-hydroxy-3,14-dioxo-3,4,12,14-tetrahydro-1H-pyrano[3′,4′:6,7]indolizino[1,2-b]quinolin-9-yl 4-(2-(5-(3-(2,4-dihydroxy-5-isopropylphenyl)-5-hydroxy-4H-1,2,4-triazol-4-yl)-1H-indol-1-yl)ethyl)piperidine-1-carboxylate]", "values": [{"measurement": "logP", "setting": "[1]", "value": "~6.7"}, {"measurement": "TV Mean", "setting": "[2]; Compound A 25 mg/kg days 1 and 8, Day 1", "value": 273.4, "unit": "mm3"}, {"measurement": "TGI %", "setting": "[2]; [4]", "value": 2.8, "unit": "%"}, {"measurement": "TV Mean", "setting": "[2]; [4]", "value": 390.6, "unit": "mm3"}, {"measurement": "TGI %", "setting": "[2]; [5]", "value": 24.9, "unit": "%"}, {"measurement": "TV Mean", "setting": "[2]; [5]", "value": 423.8, "unit": "mm3"}, {"measurement": "TV Mean", "setting": "[2]; Compound A 25 mg/kg days 1 and 8, Day 11", "value": 383.2, "unit": "mm3"}, {"measurement": "TGI %", "setting": "[2]; Compound A 25 mg/kg days 1 and 8, Day 11, 25 mg/kg", "value": 47, "unit": "%"}, {"measurement": "TGI %", "setting": "[2]; [6]", "value": 69.3, "unit": "%"}, {"measurement": "TV Mean", "setting": "[2]; [6]", "value": 345.4, "unit": "mm3"}, {"measurement": "TGI %", "setting": "[2]; [7]", "value": 72.2, "unit": "%"}, {"measurement": "TV Mean", "setting": "[2]; [7]", "value": 387.4, "unit": "mm3"}, {"measurement": "TV Mean", "setting": "[2]; Compound A 25 mg/kg days 1 and 8, Day 22", "value": 510.4, "unit": "mm3"}, {"measurement": "TGI %", "setting": "[2]; Compound A 25 mg/kg days 1 and 8, Day 22, 25 mg/kg", "value": 70, "unit": "%"}, {"measurement": "TV Mean", "setting": "[2]; Compound A 25 mg/kg days 1 and 8, Day 26", "value": 654.4, "unit": "mm3"}, {"measurement": "TV Mean", "setting": "[2]; Compound A 25 mg/kg days 1 and 8, Day 31", "value": 866.4, "unit": "mm3"}, {"measurement": "TV Mean", "setting": "[2]; Compound A 50 mg/kg days 1 and 8, Day 1", "value": 273.3, "unit": "mm3"}, {"measurement": "TV individual animal", "setting": "[2]; Compound A 50 mg/kg days 1 and 8, Day 1, 50 mg/kg", "value": "222 mm3 and 255 mm3"}, {"measurement": "TV Mean", "setting": "[2]; Compound A 50 mg/kg days 1 and 8, Day 5", "value": 360.1, "unit": "mm3"}, {"measurement": "TGI %", "setting": "[2]; [8]", "value": "10.42% and 10.4%"}, {"measurement": "TV individual animal", "setting": "[2]; [8]", "value": 293, "unit": "mm3"}, {"measurement": "TV Mean", "setting": "[2]; Compound A 50 mg/kg days 1 and 8, Day 8", "value": 377.9, "unit": "mm3"}, {"measurement": "TGI %", "setting": "[2]; [9]", "value": "33.02% and 33%"}, {"measurement": "TV individual animal", "setting": "[2]; [9]", "value": 336, "unit": "mm3"}, {"measurement": "TV Mean", "setting": "[2]; Compound A 50 mg/kg days 1 and 8, Day 11", "value": 267.8, "unit": "mm3"}, {"measurement": "TGI %", "setting": "[2]; [10]", "value": "62.98% and 63%"}, {"measurement": "TV individual animal", "setting": "[2]; [10]", "value": 202, "unit": "mm3"}, {"measurement": "TV Mean", "setting": "[2]; Compound A 50 mg/kg days 1 and 8, Day 16", "value": 166.4, "unit": "mm3"}, {"measurement": "TGI %", "setting": "[2]; [11]", "value": "85.23% and 85.2%"}, {"measurement": "TV individual animal", "setting": "[2]; [11]", "value": 136, "unit": "mm3"}, {"measurement": "TV Mean", "setting": "[2]; Compound A 50 mg/kg days 1 and 8, Day 19", "value": 116.6, "unit": "mm3"}, {"measurement": "TGI %", "setting": "[2]; [12]", "value": "91.64% and 91.6%"}, {"measurement": "TV individual animal", "setting": "[2]; [12]", "value": 103, "unit": "mm3"}, {"measurement": "TV Mean", "setting": "[2]; Compound A 50 mg/kg days 1 and 8, Day 22", "value": 125.6, "unit": "mm3"}, {"measurement": "TGI %", "setting": "[2]; [13]", "value": "92.63% and 92.6%"}, {"measurement": "TV individual animal", "setting": "[2]; [13]", "value": 91, "unit": "mm3"}, {"measurement": "TV Mean", "setting": "[2]; Compound A 50 mg/kg days 1 and 8, Day 26", "value": 165.7, "unit": "mm3"}, {"measurement": "TV individual animal", "setting": "[2]; Compound A 50 mg/kg days 1 and 8, Day 26, 50 mg/kg", "value": 116, "unit": "mm3"}, {"measurement": "TV Mean", "setting": "[2]; Compound A 50 mg/kg days 1 and 8, Day 31", "value": 318.9, "unit": "mm3"}, {"measurement": "TV individual animal", "setting": "[2]; Compound A 50 mg/kg days 1 and 8, Day 31, 50 mg/kg", "value": 256, "unit": "mm3"}, {"measurement": "TV Mean", "setting": "[2]; Compound A 150 mg/kg days 1 and 8, Day 1", "value": 273.6, "unit": "mm^3"}, {"measurement": "TV individual animal", "setting": "[2]; Compound A 150 mg/kg days 1 and 8, Day 1, 150 mg/kg", "value": "218 mm^3 and 266 mm^3 and 269 mm^3 and 295 mm^3 and 302 mm^3 and 335 mm^3 and 339 mm^3 and 353 mm^3 and 144 mm^3 and 215 mm^3"}, {"measurement": "TV Mean", "setting": "[2]; Compound A 150 mg/kg days 1 and 8, Day 5", "value": 353, "unit": "mm^3"}, {"measurement": "TGI %", "setting": "[2]; [14]", "value": "12.19% and 12.9%"}, {"measurement": "TV individual animal", "setting": "[2]; [14]", "value": "291 mm^3 and 370 mm^3 and 363 mm^3 and 417 mm^3 and 376 mm^3 and 367 mm^3 and 406 mm^3 and 568 mm^3 and 147 mm^3 and 225 mm^3"}, {"measurement": "TV Mean", "setting": "[2]; Compound A 150 mg/kg days 1 and 8, Day 8", "value": 343.8, "unit": "mm^3"}, {"measurement": "TGI %", "setting": "[2]; [15]", "value": "39.06% and 39.1%"}, {"measurement": "TV individual animal", "setting": "[2]; [15]", "value": "275 mm^3 and 362 mm^3 and 281 mm^3 and 413 mm^3 and 354 mm^3 and 393 mm^3 and 397 mm^3 and 595 mm^3 and 168 mm^3 and 200 mm^3"}, {"measurement": "TGI %", "setting": "[2]; [16]", "value": 65.44, "unit": "%"}, {"measurement": "TV Mean", "setting": "[2]; [16]", "value": 250, "unit": "mm^3"}, {"measurement": "TGI %", "setting": "[2]; [17]", "value": 65.4, "unit": "%"}, {"measurement": "TV individual animal", "setting": "[2]; [17]", "value": "189 mm^3 and 236 mm^3 and 217 mm^3 and 318 mm^3 and 264 mm^3 and 322 mm^3 and 285 mm^3 and 436 mm^3 and 99 mm^3 and 134 mm^3"}, {"measurement": "TV Mean", "setting": "[2]; Compound A 150 mg/kg days 1 and 8, Day 16", "value": 109.7, "unit": "mm^3"}, {"measurement": "TGI %", "setting": "[2]; [18]", "value": "90.26% and 90.3%"}, {"measurement": "TV individual animal", "setting": "[2]; [18]", "value": "89 mm^3 and 108 mm^3 and 90 mm^3 and 132 mm^3 and 123 mm^3 and 138 mm^3 and 135 mm^3 and 173 mm^3 and 46 mm^3 and 63 mm^3"}, {"measurement": "TV Mean", "setting": "[2]; Compound A 150 mg/kg days 1 and 8, Day 19", "value": 77.9, "unit": "mm^3"}, {"measurement": "TGI %", "setting": "[2]; [19]", "value": "94.41% and 94.4%"}, {"measurement": "TV individual animal", "setting": "[2]; [19]", "value": "55 mm^3 and 100 mm^3 and 85 mm^3 and 95 mm^3 and 74 mm^3 and 121 mm^3 and 39 mm^3 and 135 mm^3 and 33 mm^3 and 42 mm^3"}, {"measurement": "TV Mean", "setting": "[2]; Compound A 150 mg/kg days 1 and 8, Day 22", "value": 63.5, "unit": "mm^3"}, {"measurement": "TGI %", "setting": "[2]; [20]", "value": "96.27% and 96.3%"}, {"measurement": "TV individual animal", "setting": "[2]; [20]", "value": "46 mm^3 and 64 mm^3 and 72 mm^3 and 85 mm^3 and 66 mm^3 and 89 mm^3 and 71 mm^3 and 68 mm^3 and 27 mm^3 and 47 mm^3"}, {"measurement": "TV Mean", "setting": "[2]; Compound A 150 mg/kg days 1 and 8, Day 26", "value": 51.8, "unit": "mm^3"}, {"measurement": "TV individual animal", "setting": "[2]; Compound A 150 mg/kg days 1 and 8, Day 26, 150 mg/kg", "value": "45 mm^3 and 52 mm^3 and 68 mm^3 (2×) and 61 mm^3 and 83 mm^3 and 77 mm^3 and 41 mm^3 and 4 mm^3 and 19 mm^3"}, {"measurement": "TV Mean", "setting": "[2]; Compound A 150 mg/kg days 1 and 8, Day 31", "value": 13.5, "unit": "mm^3"}, {"measurement": "TV individual animal", "setting": "[2]; Compound A 150 mg/kg days 1 and 8, Day 31, 150 mg/kg", "value": "11 mm^3 and 17 mm^3 and 25 mm^3 and 6 mm^3 and 3 mm^3 and 44 mm^3 and 2 mm^3 and 27 mm^3 and 0 mm^3 (2×)"}, {"measurement": "AUC(0-inf)", "setting": "[3]", "value": 3.93, "unit": "µM·h"}, {"measurement": "AUC(0-t)", "setting": "[3]", "value": 3.93, "unit": "µM·h"}, {"measurement": "Cmax", "setting": "[3]", "value": 11.8, "unit": "µM"}, {"measurement": "Vd", "setting": "[3]", "value": 0.0786, "unit": "L/kg"}, {"measurement": "clearance", "setting": "[3]", "value": 4.82, "unit": "mL/min/kg"}, {"measurement": "half-life", "setting": "[3]", "value": 59.1, "unit": "min"}]}]}
